Here are results for 3 molecules from patent US20240150302A1, “6-METHYLURACIL DERIVATIVES WITH ANTICHOLINESTERASE ACTIVITY AND THEIR USE” (priority 2021, published 2024).

The structures appear in SMILES notation.

For data set [1], the system named is transgenic mice of the B6C3-Tg(APP695)85Dbo Tg(PSENI)85Dbo genotype. Particulars: 5 mg/kg daily intraperitoneal, RU patent No. 2565756; cited from earlier work.
Data set [2] in a line: Solubility in water and organic solvents. The format is physicochemical.
Data set [3] concerns mice of the CD-1 line. Particulars: in mice, i.p.; prior-art free base; cited from earlier work.
The test system of data set [4] is mice of the CD-1 line. Put plainly: General toxic effect (LD50) in mice. Particulars: for LD50 (in mice, i.p.): intraperitoneal; for LD50 (in mice, p.o.): oral; for Times less toxic than donepezil hydrochloride, oral: ratio of LD50, administered orally; for Times less toxic than donepezil hydrochloride, intraperitoneal / Times less toxic than the free base: ratio of LD50, intraperitoneal. The protocol:
Ed. A. N. Mironova] on mice of the CD-1 line (“Puschino” Nursery, Moscow Region), both males and females, weighing 19.0±2.0 g, kept on a standard diet in the day/night lighting regimen (12 hours) at 22° C.

Data set [5] concerns transgenic mice with genotype B6C3-Tg(APP695)85Dbo Tg(PSENI)85Dbo. Put plainly: "Rewarded alternation" test in a T-maze, genetic model of Alzheimer's disease. The format is in vivo. The settings on record: administered orally, compared with healthy animals. From the text:
At the beginning of the research, the age of the transgenic mice was 9 months.
At the beginning of the research, the age of the transgenic mice was 8 months.

Data set [6] concerns transgenic mice of the B6C3-Tg(APP695)85Dbo Tg(PSENI)85Dbo genotype. Put plainly: Number of amyloid plaques in the cortex, Thioflavin S staining of brain sections. In kind it is in vivo. Particulars: administered orally. The protocol: The line was purchased at The Jackson Laboratory (USA) and kept in the “Pushchino” nursery for laboratory animals Pushchino, Moscow Region). At the beginning of the research, the age of the transgenic mice was 9 months.
(§1) An equivalent amount of water (Water (Tg+)) was orally administered to control groups of transgenic mice.
Amyloid-beta deposits were evaluated after sacrifice on mouse brain sections (20 μm) using the Thioflavin S fluorescent dye and the Olympus BX51W1 fluorescence microscope, by the method described in the article [http://library.med.utah.edu/WebPath/histhtml/manuals/manuals.html].
The line was purchased at The Jackson Laboratory (USA) and kept in the “Pushchino” nursery for laboratory animals Pushchino, Moscow Region). At the beginning of the research, the age of the transgenic mice was 8 months.
as §1

For the molecule `CCN(CCCCCn1c(C)cc(=O)n(CCCCCN(CC)Cc2ccccc2[N+](=O)[O-])c1=O)Cc1ccccc1[N+](=O)[O-]` [1,3-bis[5-(ortho-nitrobenzyl-ethylamino)pentyl-1]-6-methyluracil, reference compound], in data set [1], the “Reduction of the number of amyloid deposits in the cerebral cortex” value is given as 50%. Further, the “Solubility” value in data set [2] was “insoluble in water”. For the same molecule, the “LD50 (background statement)” value with mice of the CD-1 line [3] is 51.48 mg/kg. Besides, the “LD50 (in mice, i.p.)” value with mice of the CD-1 line [4] is reported as 51 mg/kg.
For the molecule `Br.Br.CCN(CCCCCn1c(C)cc(=O)n(CCCCCN(CC)Cc2ccccc2[N+](=O)[O-])c1=O)Cc1ccccc1[N+](=O)[O-]` [Compound (1), 1,3-bis[5-(ortho-nitrobenzylethylamino)pentyl]-6-methyluracil dihydrobromide], the “Solubility” value in data set [2] is “soluble in chloroform, dimethylformamide, dimethyl sulfoxide, ethyl alcohol, and water”. The “Correction of memory impairment” value in data set [5] is reported as “effective for correction of memory impairment”. In data set [6], the “Effect on the number of amyloid plaques in the cortex” value is listed as “more effective product for prevention of the formation of amyloid plaque than donepezil hydrochloride”. For the same molecule, in the data set with mice of the CD-1 line [4], the “LD50 (in mice, i.p.)” value is on record as 199 mg/kg; the “LD50 (in mice, p.o.)” value amounted to 520 mg/kg; the “Times less toxic than donepezil hydrochloride, oral” value is 12 times; the “Times less toxic than donepezil hydrochloride, intraperitoneal” value came out at 40 times. Further, the “Times less toxic than the free base” value with mice of the CD-1 line [4] is roughly 4 times.
For the molecule `CCN(CCCCCn1c(C)cc(=O)n(CCCCCN(CC)Cc2ccccc2[N+](=O)[O-])c1=O)Cc1ccccc1[N+](=O)[O-].Cl.Cl` [Compound (2), 1,3-bis[5-(ortho-nitrobenzylethylamino)pentyl]-6-methyluracil dihydrochloride], in data set [2], the “Solubility” value is “soluble in dimethylformamide, dimethyl sulfoxide, ethyl alcohol, and water”. The “Correction of memory impairment” value in data set [5] was “effective for correcting memory impairment”. Moreover, the “Effect on the number of amyloid plaques in the cortex” value in data set [6] is recorded as “more effective than donepezil hydrochloride for preventing the formation of amyloid plaques”. In the data set with mice of the CD-1 line [4], the “LD50 (in mice, i.p.)” value was 150 mg/kg; the “LD50 (in mice, p.o.)” value is recorded as 290 mg/kg; the “Times less toxic than donepezil hydrochloride, oral” value is given as 6 times; the “Times less toxic than donepezil hydrochloride, intraperitoneal” value is listed as 30 times. The “Times less toxic than the free base” value with mice of the CD-1 line [4] is recorded as roughly 3 times.
